In BindingDB's records for doi:10.1002/cbic.201300770 (Northeast Ohio Medial University, 2014):

How the values were obtained:
[1] = biological target: T1, Amine oxidase [flavin-containing] A (Homo sapiens, UniProt P21397); assay: MAO Enzyme Assays; details: pH 7.4
T1 sequence (P21397 whole entry): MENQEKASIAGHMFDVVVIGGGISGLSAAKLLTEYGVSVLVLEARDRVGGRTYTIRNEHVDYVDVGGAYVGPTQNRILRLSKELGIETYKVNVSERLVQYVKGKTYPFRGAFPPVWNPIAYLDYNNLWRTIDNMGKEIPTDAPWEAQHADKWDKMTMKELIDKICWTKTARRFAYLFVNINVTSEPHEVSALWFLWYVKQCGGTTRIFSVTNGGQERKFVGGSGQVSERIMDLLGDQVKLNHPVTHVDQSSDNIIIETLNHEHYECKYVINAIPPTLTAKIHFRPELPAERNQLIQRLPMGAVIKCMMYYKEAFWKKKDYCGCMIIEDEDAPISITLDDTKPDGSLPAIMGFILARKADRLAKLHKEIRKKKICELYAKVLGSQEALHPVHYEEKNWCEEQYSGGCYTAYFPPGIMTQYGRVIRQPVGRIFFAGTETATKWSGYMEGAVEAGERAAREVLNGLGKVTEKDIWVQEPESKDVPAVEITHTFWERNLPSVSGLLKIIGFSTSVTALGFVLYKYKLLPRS
Description: (§1) The buffer system used was a 0.1 M phosphate buffer (pH 7.4). The assays were carried out in a fluorescent 96-well plate. The final concentrations of MAO-A and MAO-B were 6 µg/mL and 15 µg/mL, respectively. The final concentration of kynuramine was 40 µM for MAO-A or 20 µM for MAO-B. The compounds (10 mM stock solution in DMSO; less than 2% (v/v) final concentration of DMSO in the assay) were incubated with MAO and the substrate for 20 min, and quenched with the addition of 2 N NaOH.

[2] = biological target: T2, Amine oxidase [flavin-containing] B (Homo sapiens, UniProt P27338); assay: MAO Enzyme Assays; details: pH 7.4
T2 sequence (P27338 whole entry): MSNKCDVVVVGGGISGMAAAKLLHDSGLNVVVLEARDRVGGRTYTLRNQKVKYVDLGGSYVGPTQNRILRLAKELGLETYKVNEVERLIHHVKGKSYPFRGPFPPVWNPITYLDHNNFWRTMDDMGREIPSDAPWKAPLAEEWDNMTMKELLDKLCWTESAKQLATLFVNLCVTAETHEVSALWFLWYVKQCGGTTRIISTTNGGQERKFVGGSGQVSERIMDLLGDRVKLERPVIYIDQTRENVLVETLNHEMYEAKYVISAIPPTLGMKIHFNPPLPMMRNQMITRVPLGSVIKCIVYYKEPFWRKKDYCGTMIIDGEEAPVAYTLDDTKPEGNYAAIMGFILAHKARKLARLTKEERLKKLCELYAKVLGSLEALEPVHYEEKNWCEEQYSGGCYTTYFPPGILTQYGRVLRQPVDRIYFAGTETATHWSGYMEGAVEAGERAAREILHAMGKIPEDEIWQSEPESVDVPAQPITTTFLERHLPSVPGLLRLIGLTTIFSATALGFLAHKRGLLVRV
Description: as §1

| Compound | IC50 [1] [µM] | IC50 [2] [µM] |
| --- | --- | --- |
| c1ccc(/N=N/c2ccccc2)cc1 [(E)-1,2-diphenyldiazene] | 22.9 | 2.66 |
| CN(C)c1ccc(/N=N/c2ccccc2)cc1 [(E)-N,N-dimethyl-4-(phenyldiazenyl)aniline] | 4.64 | 0.0146 |
